Results from patent US7700581B2, “Cephalosporin compounds comprising a C3 thio-methyl moiety substituted with N-containing heterocyclic group, and a C7 thiourea acetamido group, their preparations and uses thereof” (Guangzhou Baiyunshan Pharmaceutical Co., Ltd., priority 2007, dated 2010).
In brackets after ≈: the same amount, converted by molar mass. Read-outs that look alike come from different tables or passages of the source.

Columns and labels:
[1] = Pharmacokinetic comparative experiment, intravenous injection, plasma by HPLC; assay type: in vivo, Beagle dogs
Method: The resulting BYS02 obtained from the Examples 6 and 7 as shown above was used to compare with cefathiamidine in the following pharmacokinetic study.
Commercially available cefathiamidine was used as the comparison in the pharmacokinetic study. Using the cross-over controlled trial experimental design, 6 healthy Beagle dogs were divided into two groups: one group of dogs were intravenously injected with 50 mg/kg.bw of the BYS02 and the other group of dogs were injected with 50 mg/kg.bw of cefathiamidine. Blood samples were taken every 12 hours. The drug plasma concentrations were analyzed using HPLC. The drug plasma concentration over the time data were analyzed using MCPKP program.
Six Beagle dogs were provided by Guangzhou Pharmaceutical Research Institute. They were healthy, male, one-year old, and each weighed 8.0±0.1 kg. The dogs were kept in single-dog cages and fed with water and food according to the standards for laboratory animals. One week before the tests, the dogs were examined for hearts, livers, and kidneys, and they were found normal.
BYS02 was prepared according to Example 6 with a purity of 90%. Cefathiamidine was purchased from the market. Heparin sodium, sodium hydrogen phosphate, citric acid, methanol, ethyl acetate and other agents used were analytical-pure. Propionitrile used was chromatographic-pure. Water is pure. High Performance Liquid Chromatography (HPLC) and high-speed refrigerated centrifuges were used in the tests.
Sixteen hours before and 4 hours after the administration, the Beagle dogs were not allowed to eat food but allowed to drink water freely. After intravenously injection with 50 mg/kg.bw of the BYS02 and cefathiamidine, respectively, the two groups of dogs were taken 3 ml of blood samples intravenously at 0, 0.083, 0.17, 0.25, 0.5, 1, 1.5, 2, 3, 4, 6, 9, and 12 hours. The dogs were administrated every other week and blood samples were collected according to the above schedule. The blood samples were added to centrifuge tubes, mixed with heparin, centrifuged at 4000 rpm for 10 minutes, and the serum samples were stored in a refrigerator at −20° C. until they were used.
Hypersil ODS2, C18 column (4.6 mm×150 mm, 5 μm); mobile phase: propionitrile/phosphate buffer (11/89 volume ratio); wavelength: 254 nm; flow rate: 1.0 ml/min; room temperature; sample size: 20 μl.
Preparation of phosphate buffer (pH 7.0): 2.76 g of sodium hydrogen phosphate, 1.29 g of citric acid and 1000 ml of water were mixed well and filtered.
Drug plasma concentration over the time data were analyzed using MCPKP program to calculate the pharmacokinetic parameters. The average values and standard deviations were also calculated.

[2] = Water solubility of the product; assay type: physicochemical; settings: product of Example 6
Method: 200 ml of methylene dichloride and 2.0 g of the intermediate prepared according to Example 1 were added to a three-neck flask. 16 ml of triethylamine was added dropwise to the flask to dissolve the solid. 0.6 g of N,N′-diisopropylthiourea was added to the reaction mixture. The mixture was refluxed until the reaction was complete. A solid product appeared in the reaction mixture. The temperature was lowered and the crystallization was carried out for an hour. The solid was filtered and dried under vacuum to yield 1.5 g of the product. It has a pH value of 5.4 and cloudiness of lower than 1 degree (1 g/10 ml water). The product is water soluble.

Streptococcus pneumoniae = test: In vitro antibacterial activity test (MIC); assay type: cell-based; settings: read-out: minimum inhibitory concentration (MIC)
Method: (§1) In vitro antibacterial activity test of the cephalosporin compounds disclosed herein using the common methods known in the art were conducted.

Pseudomonas aeruginosa = test: In vitro antibacterial activity test (MIC); assay type: cell-based; settings: read-out: minimum inhibitory concentration (MIC)
Method: as §1

[3] = system: Staphylococcus epidermidis; test: In vitro antibacterial activity test (MIC); assay type: cell-based; settings: read-out: minimum inhibitory concentration (MIC)
Method: as §1

Staphylococcus aureus = test: In vitro antibacterial activity test (MIC); assay type: cell-based; settings: read-out: minimum inhibitory concentration (MIC)
Method: as §1

Hemophilus influenzae = test: In vitro antibacterial activity test (MIC); assay type: cell-based; settings: Haemophilus influenzae, read-out: minimum inhibitory concentration (MIC)
Method: as §1

Enterococcus = test: In vitro antibacterial activity test (MIC); assay type: cell-based; settings: read-out: minimum inhibitory concentration (MIC)
Method: as §1

SPF grade mice = test: Acute toxicity test by intravenous injection; assay type: in vivo
Excerpt: A commonly-used acute toxicity test method was used with SPF grade mice by intravenous injection.

Streptococcus pyogenes = test: In vitro antibacterial activity test (MIC); assay type: cell-based; settings: read-out: minimum inhibitory concentration (MIC)
Method: as §1

Salmonella = test: In vitro antibacterial activity test (MIC); assay type: cell-based; settings: read-out: minimum inhibitory concentration (MIC)
Method: as §1

Viridans streptococcus = test: In vitro antibacterial activity test (MIC); assay type: cell-based; settings: read-out: minimum inhibitory concentration (MIC)
Method: as §1

[4] = system: Streptococcus hemolyticus group A; test: In vitro antibacterial activity test (MIC); assay type: cell-based; settings: Streptococcus pyogenes, read-out: minimum inhibitory concentration (MIC)
Method: as §1

[5] = Beagle dogs, intravenous injection, 50 mg/kg.bw
[6] = single intravenous administration

Q: Which AUC ([1]; dog, in vivo, iv, 50 mg/kg) does the source give for `CC(=O)OCC1=C(C(=O)O)N2C(=O)[C@@H](NC(=O)CSC(=NC(C)C)NC(C)C)[C@H]2SC1` [cefathiamidine, reference compound] here?
A: 42.25 ± 1.02 µg·h/mL

Q: What about the ClB ([1]; dog, in vivo, iv, 50 mg/kg) of the same compound?
A: 19.7 ± 0.5 mL/min/kg

Q: What about the Co ([1]; dog, in vivo, iv, 50 mg/kg) of the same compound?
A: 90.84 ± 29.71 µg/mL

Q: What about the V1 ([1]; dog, in vivo, iv, 50 mg/kg) of the same compound?
A: 0.59 ± 0.20 L/kg

Q: What about the VB ([1]; dog, in vivo, iv, 50 mg/kg) of the same compound?
A: 1.11 ± 0.07 L/kg

Q: And the t1/2α ([1]; dog, in vivo, iv, 50 mg/kg)?
A: 12.6 ± 8.4 min

Q: And the t1/2β ([1]; dog, in vivo, iv, 50 mg/kg)?
A: 39 ± 1.8 min

Q: For `CC(C)N=C(NC(C)C)SCC(=O)NC1C(=O)N2C(C(=O)O)=C(CSc3nc(=O)c(=O)[nH]n3C)CSC12` (stereo not drawn) [Compound II, 3-((1,2,5,6-tetrahydro-2-methyl-5,6-dioxo-1,2,4-triazine-3-ylthio)methyl)-7-[[[[[(1-methylethyl)amino][(1-methylethyl)imino]methyl]thio]acetyl]amino]-8-oxo-5-thia-1-aza-bicyclo[4.2.0]oct-2-ene-2-carboxylic acid], which solubility in water [2] is on record?
A: water soluble

Q: And the ClB [1, 5]?
A: 7.83 ± 1.5 mL/min/kg

Q: And the Co [1, 5]?
A: 208.97 ± 61.16 µg/mL

Q: And the V1 [1, 5]?
A: 0.25 ± 0.07 L/kg

Q: And the VB [1, 5]?
A: 1.61 ± 0.30 L/kg

Q: And the t1/2α [1, 5]?
A: 37.8 ± 7.2 min

Q: And the t1/2β [1, 5]?
A: 131 ± 2.4 min

Q: What about the AUC ([1]; male, dog, in vivo, Beagle dogs, intravenous injection, 50 mg/kg.bw, read-out: AUC) of the same compound?
A: 108 ± 18.2 µg·h/mL

Q: What about the MIC (Streptococcus pneumoniae) of the same compound?
A: 0.125 to 0.5 µg/mL (≈ 0.219 to 0.875 µM)

Q: What about the MIC (Pseudomonas aeruginosa) of the same compound?
A: > 512 µg/mL

Q: What about the MIC [3] of the same compound?
A: 0.0312 to 2 µg/mL (≈ 0.0546 to 3.5 µM)

Q: What about the MIC (Staphylococcus aureus) of the same compound?
A: 1 to 4 µg/mL (≈ 1.75 to 7 µM)

Q: And the MIC (Hemophilus influenzae)?
A: 8 to 16 µg/mL (≈ 14 to 28 µM)

Q: And the MIC (Enterococcus)?
A: 4 to 8 µg/mL (≈ 7 to 14 µM)

Q: What about the LD50 (SPF grade mice; [6]) of the same compound?
A: 672 mg/kg.bw

Q: What about the “LD50 95% confidence limit” value (SPF grade mice; [6]) of the same compound?
A: 650-700 mg/kg.bw

Q: What about the mortality (SPF grade mice; single intravenous injection of 465 mg/kg.bw) of the same compound?
A: No death

Q: And the mortality (SPF grade mice; single intravenous injection of 930 mg/kg.bw or more)?
A: the animals died after 10 seconds of struggling

Q: For `Cc1nc(SCC2=C(C(=O)O)N3C(=O)C(NC(=O)CSC(=NC(C)C)NC(C)C)C3SC2)sc1CC(=O)O` (stereo not drawn) [Compound V, 3-[[[5-(carboxymethyl)-4-methyl-2-thiazolyl]thio]methyl]-7-[[[[[(1-methylethyl)amino][(1-methylethyl)imino]methyl]thio]acetyl]amino]-8-oxo-5-thia-1-aza-bicyclo[4.2.0]oct-2-ene-2-carboxylic acid], which MIC (Streptococcus pyogenes) is on record?
A: 0.0312 to 0.5 µg/mL (≈ 0.0518 to 0.831 µM)

Q: What about the MIC (Salmonella) of the same compound?
A: 2 to 8 µg/mL (≈ 3.32 to 13.3 µM)

Q: And the MIC (Viridans streptococcus)?
A: 0.125 to 4 µg/mL (≈ 0.208 to 6.65 µM)

Q: What about the MIC [4] of the same compound?
A: 0.125 to 1 µg/mL (≈ 0.208 to 1.66 µM)

Q: And the MIC (Staphylococcus aureus)?
A: 0.25 to 2 µg/mL (≈ 0.415 to 3.32 µM)

Q: What about the MIC (Hemophilus influenzae) of the same compound?
A: > 256 µg/mL

Q: And the MIC (Enterococcus)?
A: 2 to 8 µg/mL (≈ 3.32 to 13.3 µM)

Q: What does the source list for `CO/N=C(\C(=O)N[C@@H]1C(=O)N2C(C(=O)O)=C(CSc3nc(=O)c(=O)[nH]n3C)CS[C@H]12)c1csc(N)n1` [Ceftriaxone, ceftriaxone, reference compound]?
A: MIC (Salmonella): 0.125 µg/mL (≈ 0.225 µM); MIC [3]: 2 to 8 µg/mL (≈ 3.61 to 14.4 µM); MIC (Staphylococcus aureus): 32 to 64 µg/mL (≈ 57.7 to 115 µM); MIC (Enterococcus): > 512 µg/mL
